Source: publication doi:10.1101/2023.10.20.563248v1 (biorxiv, 2023)

How the values were obtained:
Settings in all cases: 1 µM; inhibitor
PRKD2 = PRKD2 (Homo sapiens, UniProt Q9BZL6)
DYRK3 = DYRK3 (Homo sapiens, UniProt O43781)
CDK11B = CDK11B (Homo sapiens, UniProt P21127)
PKCnu = PKCnu (Homo sapiens, UniProt O94806)
FES = FES (Homo sapiens, UniProt P07332)
BMPR1A = BMPR1A (Homo sapiens, UniProt P36894)
CAMK2A = CAMK2A (Homo sapiens, UniProt Q9UQM7)
AurA = AurA (Homo sapiens, UniProt O14965)
FLT3 = FLT3 (Homo sapiens, UniProt P36888)
CHK2 = CHK2 (Homo sapiens, UniProt O96017)
MARK1 = MARK1 (Homo sapiens, UniProt Q9P0L2)
ERK2 = ERK2 (Homo sapiens, UniProt P28482)
PHKG1 = PHKG1 (Homo sapiens, UniProt Q16816)
RIPK4 = RIPK4 (Homo sapiens, UniProt P57078)
JAK1 = JAK1 (Homo sapiens, UniProt P23458)
Sequence of JAK1 (P23458 whole entry): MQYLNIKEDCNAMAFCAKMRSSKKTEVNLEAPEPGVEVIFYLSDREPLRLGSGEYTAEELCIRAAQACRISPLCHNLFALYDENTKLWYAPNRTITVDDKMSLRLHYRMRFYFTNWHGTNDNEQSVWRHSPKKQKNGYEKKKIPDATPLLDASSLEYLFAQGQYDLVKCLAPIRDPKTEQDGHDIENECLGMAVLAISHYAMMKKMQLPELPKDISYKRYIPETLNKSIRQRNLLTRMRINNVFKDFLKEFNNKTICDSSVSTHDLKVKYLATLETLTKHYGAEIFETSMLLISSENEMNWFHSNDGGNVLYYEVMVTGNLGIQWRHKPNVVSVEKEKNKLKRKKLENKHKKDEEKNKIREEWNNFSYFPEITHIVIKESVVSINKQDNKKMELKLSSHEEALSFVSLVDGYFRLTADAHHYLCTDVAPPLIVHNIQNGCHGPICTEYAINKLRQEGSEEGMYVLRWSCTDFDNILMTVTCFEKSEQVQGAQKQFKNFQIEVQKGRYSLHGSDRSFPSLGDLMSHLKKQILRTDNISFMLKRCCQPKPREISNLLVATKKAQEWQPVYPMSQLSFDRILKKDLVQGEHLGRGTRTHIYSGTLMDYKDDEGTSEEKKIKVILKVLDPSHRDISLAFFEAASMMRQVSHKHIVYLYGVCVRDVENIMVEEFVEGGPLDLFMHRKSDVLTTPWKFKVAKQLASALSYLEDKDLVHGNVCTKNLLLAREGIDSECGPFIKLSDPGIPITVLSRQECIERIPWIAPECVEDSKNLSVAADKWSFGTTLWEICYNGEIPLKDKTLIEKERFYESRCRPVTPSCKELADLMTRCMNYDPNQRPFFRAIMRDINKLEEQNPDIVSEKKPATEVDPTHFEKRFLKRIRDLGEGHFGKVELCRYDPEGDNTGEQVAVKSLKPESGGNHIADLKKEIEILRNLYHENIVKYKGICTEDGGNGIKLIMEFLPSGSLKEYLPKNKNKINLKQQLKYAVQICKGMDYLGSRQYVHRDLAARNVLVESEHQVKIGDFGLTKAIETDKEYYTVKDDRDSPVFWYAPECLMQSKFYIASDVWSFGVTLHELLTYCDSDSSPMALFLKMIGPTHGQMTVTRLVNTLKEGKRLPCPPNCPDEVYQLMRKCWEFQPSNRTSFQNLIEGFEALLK

ACVR2B = ACVR2B (Homo sapiens, UniProt Q13705)
Sequence of ACVR2B (Q13705 whole entry): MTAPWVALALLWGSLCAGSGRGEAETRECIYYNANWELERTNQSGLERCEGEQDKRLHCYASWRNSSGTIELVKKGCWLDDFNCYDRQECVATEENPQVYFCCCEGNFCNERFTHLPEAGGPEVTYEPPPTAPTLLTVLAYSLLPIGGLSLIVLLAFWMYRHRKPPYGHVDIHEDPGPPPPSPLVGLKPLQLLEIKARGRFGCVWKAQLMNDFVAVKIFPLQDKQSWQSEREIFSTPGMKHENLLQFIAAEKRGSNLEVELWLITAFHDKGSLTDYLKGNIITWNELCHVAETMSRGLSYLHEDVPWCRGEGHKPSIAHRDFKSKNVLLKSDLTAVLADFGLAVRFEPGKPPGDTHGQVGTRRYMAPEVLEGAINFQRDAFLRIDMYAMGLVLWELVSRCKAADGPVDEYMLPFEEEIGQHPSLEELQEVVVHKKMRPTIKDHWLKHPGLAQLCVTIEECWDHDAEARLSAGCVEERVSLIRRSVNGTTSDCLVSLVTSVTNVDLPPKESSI

CDK10 = CDK10 (Homo sapiens, UniProt Q15131)
PKCt = PKCt (Homo sapiens, UniProt Q04759)
PKCi = PKCi (Homo sapiens, UniProt P41743)
MAPKAPK2 = MAPKAPK2 (Homo sapiens, UniProt P49137)
VEGFR1 = VEGFR1 (Homo sapiens, UniProt P17948)
GRK6 = GRK6 (Homo sapiens, UniProt P43250)
CDK16 = CDK16 (Homo sapiens, UniProt Q00536)
Sequence of CDK16 (Q00536 whole entry): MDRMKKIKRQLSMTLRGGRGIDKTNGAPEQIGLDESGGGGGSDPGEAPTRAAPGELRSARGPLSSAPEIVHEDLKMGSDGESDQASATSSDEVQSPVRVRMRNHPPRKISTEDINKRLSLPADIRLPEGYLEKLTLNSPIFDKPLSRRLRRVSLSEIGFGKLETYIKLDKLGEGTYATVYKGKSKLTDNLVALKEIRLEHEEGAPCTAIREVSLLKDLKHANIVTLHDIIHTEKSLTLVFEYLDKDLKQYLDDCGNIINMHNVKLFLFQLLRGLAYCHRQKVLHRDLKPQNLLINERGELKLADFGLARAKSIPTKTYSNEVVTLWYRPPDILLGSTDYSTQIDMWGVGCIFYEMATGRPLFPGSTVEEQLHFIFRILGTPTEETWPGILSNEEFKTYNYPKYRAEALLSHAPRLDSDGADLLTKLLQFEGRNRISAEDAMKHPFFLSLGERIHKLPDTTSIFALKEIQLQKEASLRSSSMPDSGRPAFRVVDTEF

ACK1 = ACK1 (Homo sapiens, UniProt Q07912)
Sequence of ACK1 (Q07912 whole entry): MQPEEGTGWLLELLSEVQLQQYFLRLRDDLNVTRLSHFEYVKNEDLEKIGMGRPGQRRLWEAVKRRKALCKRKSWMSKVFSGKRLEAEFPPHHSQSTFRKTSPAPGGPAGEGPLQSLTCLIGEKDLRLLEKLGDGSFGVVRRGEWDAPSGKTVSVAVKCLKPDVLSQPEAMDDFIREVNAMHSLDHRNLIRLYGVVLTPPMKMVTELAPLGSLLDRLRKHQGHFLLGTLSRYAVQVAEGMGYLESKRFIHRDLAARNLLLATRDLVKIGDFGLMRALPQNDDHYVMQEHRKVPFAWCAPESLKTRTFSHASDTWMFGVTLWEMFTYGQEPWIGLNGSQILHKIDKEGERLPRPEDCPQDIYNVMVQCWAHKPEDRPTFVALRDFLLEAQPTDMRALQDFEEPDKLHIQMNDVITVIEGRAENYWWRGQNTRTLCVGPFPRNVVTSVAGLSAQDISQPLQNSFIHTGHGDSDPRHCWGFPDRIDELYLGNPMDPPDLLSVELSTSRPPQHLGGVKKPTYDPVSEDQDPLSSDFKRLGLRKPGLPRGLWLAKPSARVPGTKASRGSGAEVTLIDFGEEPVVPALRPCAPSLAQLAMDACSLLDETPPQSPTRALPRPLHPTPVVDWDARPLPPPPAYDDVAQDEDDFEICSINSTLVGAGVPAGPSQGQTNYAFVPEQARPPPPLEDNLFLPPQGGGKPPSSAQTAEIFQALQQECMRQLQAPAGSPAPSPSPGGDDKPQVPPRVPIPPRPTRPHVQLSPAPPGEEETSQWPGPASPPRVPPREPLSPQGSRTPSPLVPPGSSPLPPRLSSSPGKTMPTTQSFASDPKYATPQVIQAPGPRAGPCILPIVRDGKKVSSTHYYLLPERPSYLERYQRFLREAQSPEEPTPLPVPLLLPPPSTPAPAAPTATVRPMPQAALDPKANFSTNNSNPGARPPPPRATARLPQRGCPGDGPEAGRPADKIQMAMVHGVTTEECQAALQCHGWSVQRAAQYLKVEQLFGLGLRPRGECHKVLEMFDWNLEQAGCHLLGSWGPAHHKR

TLK1 = TLK1 (Homo sapiens, UniProt Q9UKI8)
Sequence of TLK1 (Q9UKI8 whole entry): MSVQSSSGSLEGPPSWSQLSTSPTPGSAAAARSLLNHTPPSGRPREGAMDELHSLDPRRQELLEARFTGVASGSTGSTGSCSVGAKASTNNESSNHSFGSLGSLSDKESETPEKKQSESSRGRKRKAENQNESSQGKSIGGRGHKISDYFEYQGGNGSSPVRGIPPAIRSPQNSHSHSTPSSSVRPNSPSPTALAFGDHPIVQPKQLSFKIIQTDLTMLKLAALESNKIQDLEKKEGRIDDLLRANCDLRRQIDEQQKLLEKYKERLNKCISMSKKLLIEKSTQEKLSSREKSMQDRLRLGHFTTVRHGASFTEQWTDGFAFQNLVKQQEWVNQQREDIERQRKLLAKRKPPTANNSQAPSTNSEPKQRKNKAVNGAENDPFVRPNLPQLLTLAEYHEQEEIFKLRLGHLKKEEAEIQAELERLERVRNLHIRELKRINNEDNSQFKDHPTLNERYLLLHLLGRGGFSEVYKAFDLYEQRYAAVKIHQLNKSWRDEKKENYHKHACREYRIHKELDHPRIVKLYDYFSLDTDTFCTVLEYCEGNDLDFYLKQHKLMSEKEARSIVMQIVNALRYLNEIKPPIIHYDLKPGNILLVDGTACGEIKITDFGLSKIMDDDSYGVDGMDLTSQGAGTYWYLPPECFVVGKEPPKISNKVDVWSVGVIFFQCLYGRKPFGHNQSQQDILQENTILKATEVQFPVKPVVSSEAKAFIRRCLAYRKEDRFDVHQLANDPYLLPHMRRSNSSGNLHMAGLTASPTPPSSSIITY

CK1a = CK1a (Homo sapiens, UniProt P48729)
COT = COT (Homo sapiens, UniProt P41279)
PAK1 = PAK1 (Homo sapiens, UniProt Q13153)
NLK = NLK (Homo sapiens, UniProt Q9UBE8)
RPS6KB1 = RPS6KB1 (Homo sapiens, UniProt P23443)
CAMK2B = CAMK2B (Homo sapiens, UniProt Q13554)

Sequence of FES (P07332 whole entry): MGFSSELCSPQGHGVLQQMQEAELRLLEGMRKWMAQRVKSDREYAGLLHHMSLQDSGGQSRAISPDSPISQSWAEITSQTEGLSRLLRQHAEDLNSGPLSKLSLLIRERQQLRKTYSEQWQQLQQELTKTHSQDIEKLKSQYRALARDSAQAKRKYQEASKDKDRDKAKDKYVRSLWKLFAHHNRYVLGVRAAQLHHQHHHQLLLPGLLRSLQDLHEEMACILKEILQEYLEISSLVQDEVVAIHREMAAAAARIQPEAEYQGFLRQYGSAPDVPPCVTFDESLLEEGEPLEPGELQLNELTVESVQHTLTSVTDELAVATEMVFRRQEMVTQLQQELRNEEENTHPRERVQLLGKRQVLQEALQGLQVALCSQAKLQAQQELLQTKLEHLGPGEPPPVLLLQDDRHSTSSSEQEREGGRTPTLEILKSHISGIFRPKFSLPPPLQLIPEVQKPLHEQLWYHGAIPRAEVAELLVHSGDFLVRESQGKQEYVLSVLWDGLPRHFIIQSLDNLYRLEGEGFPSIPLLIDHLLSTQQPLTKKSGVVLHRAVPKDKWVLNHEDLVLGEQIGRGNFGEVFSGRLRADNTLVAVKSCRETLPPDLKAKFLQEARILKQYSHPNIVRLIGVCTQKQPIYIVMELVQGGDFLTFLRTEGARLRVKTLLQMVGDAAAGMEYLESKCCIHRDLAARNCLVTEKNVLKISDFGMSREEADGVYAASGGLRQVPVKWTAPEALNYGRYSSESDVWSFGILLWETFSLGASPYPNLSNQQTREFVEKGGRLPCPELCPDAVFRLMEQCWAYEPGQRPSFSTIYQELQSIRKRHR

For `O=C1NCCCCCNc2nc(c3ccccc3n2)Nc2cc1[nH]n2` [21c, (Z)-3^1H-2,5,11-triaza-1(4,2)-quinazolina-3(3,5)-pyrazolacycloundecaphan-4-one], the “21c Remaining activity, percent of control [%]” value (PRKD2) was 82.0%, the “21c Remaining activity, percent of control [%]” value (DYRK3) was 96.4% and the “21c Remaining activity, percent of control [%]” value (CDK11B) was 91.2%. For the same molecule, the “21c Remaining activity, percent of control [%]” value (PKCnu) was 78.1%, the “21c Remaining activity, percent of control [%]” value (FES) was 100.7% and the “21c Remaining activity, percent of control [%]” value (BMPR1A) was 108.3%. For the same molecule, the “21c Remaining activity, percent of control [%]” value (CAMK2A) was 110.6%, the “21c Remaining activity, percent of control [%]” value (AurA) was 83.6% and the “21c Remaining activity, percent of control [%]” value (FLT3) was 103.4%. For the same molecule, the “21c Remaining activity, percent of control [%]” value (CHK2) was 84.0%, the “21c Remaining activity, percent of control [%]” value (MARK1) was 96.0% and the “21c Remaining activity, percent of control [%]” value (ERK2) was 90.7%. The “21c Remaining activity, percent of control [%]” value (PHKG1) was 98.0%, the “21c Remaining activity, percent of control [%]” value (RIPK4) was 101.1% and the “21c Remaining activity, percent of control [%]” value (JAK1) was 88.0%. The “21c Remaining activity, percent of control [%]” value (ACVR2B) was 100.5%, the “21c Remaining activity, percent of control [%]” value (CDK10) was 85.1% and the “21c Remaining activity, percent of control [%]” value (PKCt) was 42.6%. The “21c Remaining activity, percent of control [%]” value (PKCi) was 83.5%, the “21c Remaining activity, percent of control [%]” value (MAPKAPK2) was 106.1% and the “21c Remaining activity, percent of control [%]” value (VEGFR1) was 100.3%. The “21c Remaining activity, percent of control [%]” value (GRK6) was 87.6%, the “21c Remaining activity, percent of control [%]” value (CDK16) was 94.1% and the “21c Remaining activity, percent of control [%]” value (ACK1) was 79.8%. For the same molecule, the “21c Remaining activity, percent of control [%]” value (TLK1) was 92.4%, the “21c Remaining activity, percent of control [%]” value (CK1a) was 102.0% and the “21c Remaining activity, percent of control [%]” value (COT) was 115.1%. The “21c Remaining activity, percent of control [%]” value (PAK1) was 94.9%, the “21c Remaining activity, percent of control [%]” value (NLK) was 111.9% and the “21c Remaining activity, percent of control [%]” value (RPS6KB1) was 86.2%. The “21c Remaining activity, percent of control [%]” value (CAMK2B) was 88.8%.
